From patent publication US7220729B2, “Huntington's Disease Treatment” (Academia Sinica, priority 2004, dated 2007)

What was measured:
[1] = tested on: R6/2 mice; assay: Motor coordination by rotarod performance; type: in vivo, mouse; settings: treatment from 7 weeks of age, vs vehicle
From the text: The motor coordination of each mouse was also examined by rotarod performance using standard techniques. […] It is known that the motor coordination of an R6/2 mouse starts to deteriorate at the age of 4 weeks, which is 3 weeks prior to the time of the CGS 21680 treatment. It is expected that CGS 21680 administration prior to 4 week of age might improve the motor coordination of an R6/2 mouse.

[2] = tested on: R6/2 mice; assay: Blood glucose level in R6/2 mice; type: in vivo, mouse; settings: chronic treatment, untreated R6/2 higher than wild type by approximately 1-fold
Protocol: Hyperglycemia has been found in HD patients and R6/2 mice. […] The above-described R6/2 mice and wild type littermates were decapitated and blood samples (1 to 1.5 ml) were collected from each mouse using standard techniques. Blood glucose levels were measured using ABBOTT Alcyon 300i (ABBOTT Labs, USA).

[3] = tested on: R6/2 mice; assay: Locomotor activity (beam breaks in activity monitor) of R6/2 mice; type: in vivo, mouse; settings: week 2 after administration, 5 μg/g i.p. daily, vs vehicle, statistically significant (Student's t-test)
Protocol: Twenty-four hours after each administration, the locomotor activity of each mouse was measured for 10 minutes according to the method described in Lee et al., Chin. J. Physiol. 1992;35:317–336. Briefly, each mouse was placed in an activity monitor (Coulbourn Instruments, Allentown, Pa., USA) equipped with 16×16 horizontal sensors, which were used to monitor the mouse's floor position. The locomotor activity was measured by the total number of beam breaks in an X-Y plane recorded every 10 minutes.

[4] = tested on: adenylyl cyclase; assay: Adenylyl cyclase activity assay on striatal membrane fractions; type: biochemical, mouse; settings: striatal membranes of R6/2 mice compared with wild type mice
Protocol: Briefly, striatal tissues were isolated from the mice and sonicated in a lysis buffer (0.4 mM EDTA, 1 mM EGTA, 25 mM Tris-HCl, 250 mM sucrose, 0.1 mM leupeptin, and 40 μM PMSF, pH 7.4) using a W-380 sonicator (Ultrasonics, Farmingdale, N.Y., USA) at a setting of 20% output power for a total of 45 seconds. The resultant homogenate was centrifuged at 50,000×g for 30 minutes and the P1 membrane fractions and the soluble fractions were collected. The adenylyl cyclase activity assay was performed at 37° C. for 10 minutes in a 400-μl reaction mixture containing 1 mM ATP, 100 mM NaCl, 50 mM Hepes, 0.2 mM EGTA, 100 μM rolipram, 6 mM MgCl2, 1 μM GTP, and 20 μg of membrane protein. The reactions were stopped by adding 0.6 ml of 10% TCA. The cAMP formed was isolated by Dowex chromatography (Sigma, St. Louis, Mo., USA) and was assayed to the method described in Chern et al. The enzymatic reaction was in a linear range for up to 30 minutes with up to 40 μg of membrane proteins.

[5] = tested on: NGF, CNTF, GDNF, BDNF, bFGF; assay: Quantitative real-time RT-PCR of striatal neurotrophic factors; type: in vivo, mouse; settings: R6/2 mice, mRNA normalized to GAPDH, vs vehicle
Protocol: Total RNA was purified from each of the above-described administrated mice and their littermates, and was treated with RNase-free DNase I (RQI, Promega, Madison, Wis., USA) following the manufacturer's protocol to remove genomic DNA. cDNA synthesis and quantitative real-time RT-PCR were performed using the […] One-Step RT-PCR kit (Clontech, Palo Alto, Calif., USA) containing SYBR Green I (BioWhittaker Molecular Applications; BMA, Rockland, Me., USA). More specifically, the first-strand cDNA was synthesized at 50° C. for 60 minutes and denatured at 95° C. for 10 minutes. PCR reactions were then carried out in the same tubes using the following conditions for 40 cycles: 95° C. for 30 seconds, 60° C. for 30 seconds, and 68° C. for 60 seconds.
Independent RT-PCRs were performed using the same RNAs for each neurotrophic factor gene (target gene) and glyceraldehyde-3-phosphate dehydrogenase (GAPDH, reference gene). Real-time fluorescence monitoring and melting curve analysis were performed using Rotor-Gene 3000 (Corbett Research, Sydney, Australia). […] Data were analyzed by the Rotor-Gene 3000 operating software version 4.6.94 (Corbett Research) to determine the threshold cycle (CT) above the background for each reaction. The relative transcript amount of each target gene, calculated using standard curves of serial RNA dilutions, was normalized to that of GAPDH amplified from the same RNA.

[6] = tested on: AMPK; assay: Western blot of AMPK protein and Thr172 phosphorylation in striatal cytosolic fraction of treated R6/2 mice; type: in vivo, mouse; settings: striatum of R6/2 mice, 5 μg/g i.p. once a day up to 3.5 weeks
Protocol: Male R6/2 mice and wild type littermates were obtained from Jackson Laboratories (Bar Harbor, Me., USA) and were mated with female control mice (B6CBAFI/J). Each offspring was genotyped by PCR using genomic DNA extracted from the tail to ensure that the number of CAG repeats remained approximately 150. Primers used were [NT] ID NO:1) and [NT] ID NO:2). All animal experiments were performed under protocols approved by the Academia Sinica Institutional Animal Care and Utilization Conunittee, Taiwan. […] Then, the striatal cytosolic fraction was collected from each mouse and subjected to Western blot analysis using the standard techniques as described in Rutter et al., Biochem. J. 2003;375:1-16. More specifically, membrane fractions were combined with a 2× sample buffer containing 125 mM Tris-HCl (pH 6.8), 20% glycerol, 1% SDS, 15% 2-mercaptoethanol, 200 mM dithiothreitol, and 0.01% bromphenol blue; boiled for 5 minutes; centrifuged to remove the insoluble material; and then separated on 8% separating gels. […] The phosphorylation of AMPK at Thr172 was quantified by densitometry of the anti-AMPK-P immunoreactive bands using ImageQuant v.3.15 (Molecular Dynamics).

[7] = tested on: R6/2 mice; assay: Striatal atrophy / lateral ventricle enlargement on coronal brain sections; type: in vivo, mouse; settings: R6/2 mice at 12 weeks old; vehicle 1.63±0.14, p<0.001, n=5
Protocol: Striatal atrophy is one of the major characteristics of HD. In R6/2 mice, marked progressive atrophy of the striatum was found at the age of 3 to 13 weeks (Ferrante et al., J. Neurosci. 2000;20:4389–4397). Thus, the above-described CGS 21680-treated and vehicle-treated R6/2 mice were examined for striatal atrophy.
Each of the mice was anesthetized using sodium pentobarbital (100 μg/g), and intracardially perfused with 4% paraformaldehyde in 0.1 M phosphate buffer (PB, pH 7.4). The brain was carefully removed, post-fixed with 4% paraformaldehyde/0.1 M PB for 2–5 hours, and immersed in 30% glycerol in 0.1 M PB. Then, it was cut at 20 μm on a freezing microtome (CM3050, Leica Microsystems Nussloch, Nussloch, Germany). Serial-cut coronal tissue sections from the rostral segment of the neostriatum to the level of the anterior commissure (interaural 5.34 mm/bregma 1.54 mm to interaural 3.7 mm/bregma −0.1 mm) were used to define atrophy of the striatum and enlargement of the lateral ventricles. Total areas of the striatum or the lateral ventricles were measured using the software NIH Image 1.62. Nissl-stained sections were quantified by counting the corresponding types of cells in defined areas of photomicrographs taken using a phase contrast microscope.

CCNC(=O)[C@H]1O[C@@H](n2cnc3c(N)nc(NCCc4ccc(CCC(=O)O)cc4)nc32)[C@H](O)[C@@H]1O [CGS21680]
motor coordination (rotarod performance) [1]: No difference was found
blood glucose level [2]: reduced the aberrantly elevated blood glucose level in R6/2 mice to a level comparable to that in the wild type mice
locomotor activity [3]: did not exhibit such deterioration, but showed improvement in the locomotor activity
adenylyl cyclase activities induced by the compound, R6/2 vs wild type mice [4]: much higher level than those in the wild type mice
striatum expression level of trophic factors [5]: did not change
reduction of AMPK phosphorylation level (Thr172) ([6]; vs vehicle): about 35%
AMPK protein level ([6]; compared with vehicle R6/2 and wild type): about the same AMPK protein level
size of ventricular enlargement [7]: 0.91±0.14 mm^2
